Experiments:
RXRα = biological target: T1, RXRα (Homo sapiens, UniProt P19793); test: ligand binding assay, RXRα; conditions: read-out: RXR Bind Ki α
T1 construct: expressed in transfected cells
T1 sequence (P19793 1-462): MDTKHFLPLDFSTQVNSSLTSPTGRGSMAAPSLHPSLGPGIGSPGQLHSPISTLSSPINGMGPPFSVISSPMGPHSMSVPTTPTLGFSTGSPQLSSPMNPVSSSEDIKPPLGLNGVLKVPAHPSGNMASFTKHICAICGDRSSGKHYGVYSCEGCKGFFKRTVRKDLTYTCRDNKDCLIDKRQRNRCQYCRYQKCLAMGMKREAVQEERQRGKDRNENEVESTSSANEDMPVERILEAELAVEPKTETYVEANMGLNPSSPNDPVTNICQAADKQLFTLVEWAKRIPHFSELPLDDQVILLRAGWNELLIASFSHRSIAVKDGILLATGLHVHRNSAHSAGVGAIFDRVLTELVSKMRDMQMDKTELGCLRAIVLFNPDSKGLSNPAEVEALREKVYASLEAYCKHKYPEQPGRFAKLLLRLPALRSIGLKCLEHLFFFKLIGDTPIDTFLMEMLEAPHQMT
Excerpt: (§1) A holoreceptor transactivation assay and a ligand binding assay which measure the antagonist/agonist like activity of the compounds of the invention, or their ability to bind to the several retinoid receptor subtypes, respectively, are described in published PCT Application No. WO WO93/11755 (particularly on pages 30–33 and 37–41) published on Jun. 24, 1993, the specification of which is also incorporated herein by reference. […] The results obtained in this assay are expressed in EC50 numbers, as they are also in the chimeric receptor transactivation assay. The results of the ligand binding assay are expressed in Ki numbers. (See Cheng et al. Biochemical Pharmacology Vol. 22 pp 3099–3108, expressly incorporated herein by reference.)
(§2) In Table 1 NA stands for not active at all as an agonist. ND stands for not determined. The first row of numbers pertaining to each compound is the measured EC50 number. […] The third row of numbers pertaining to each compound is the binding Ki number.

RARβ = biological target: T2, RARβ (Homo sapiens, UniProt P10826); test: chimeric receptor transactivation assay, RARβ; type: cell-based; conditions: for EC50: NA = not active at all as an agonist, read-out: RAR Trans. EC50 β; for RAR β efficacy in percentage as compared to the standard compound: number in brackets
T2 sequence (P10826 183-417 limits assumed): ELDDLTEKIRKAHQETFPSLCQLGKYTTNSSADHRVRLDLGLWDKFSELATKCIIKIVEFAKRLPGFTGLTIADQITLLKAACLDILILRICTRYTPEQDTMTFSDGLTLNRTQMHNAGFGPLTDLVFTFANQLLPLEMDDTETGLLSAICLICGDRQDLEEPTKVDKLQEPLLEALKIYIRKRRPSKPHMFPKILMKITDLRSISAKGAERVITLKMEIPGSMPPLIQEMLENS
Excerpt: The specification of U.S. Pat. No. 5,455,265 is hereby expressly incorporated by reference.
Table 1 discloses the activity of certain exemplary compounds of the invention in the above-described receptor transactivation and binding assays. Particularly, the transactivation data pertaining to activation of the RAR receptors were obtained in the chimeric assay, and the transactivation data pertaining to the activation of RXR receptors were obtained in the holoreceptor assay.
Efficacy in a transactivation assay is expressed as a percentage of the maximum potency attained by the compound compared to a standard which, in this case, is the compound named (2E,4E,1′S,2′S)-3-methyl-5-[2′-methyl-2′-(5,5,8,8-tetramethyl-5,6,7,8-tetrahydro-naphthalen-2-yl)-cyclopropyl]-penta-2,4-dienoic acid.
as §2

RXRβ = biological target: T3, RXRβ (UniProt P28704); test: holoreceptor transactivation assay, RXRβ; type: cell-based; conditions: for RXR β efficacy in percentage as compared to the standard compound / EC50: holoreceptor assay; for RXR β efficacy in percentage as compared to the standard compound: number in brackets; for EC50: read-out: RXR Trans. EC50 β; for efficacy in activating RXRβ compared with RXRα and RXRγ subtypes (in words): transactivation, Table 1
T3 sequence (P28704 1-520): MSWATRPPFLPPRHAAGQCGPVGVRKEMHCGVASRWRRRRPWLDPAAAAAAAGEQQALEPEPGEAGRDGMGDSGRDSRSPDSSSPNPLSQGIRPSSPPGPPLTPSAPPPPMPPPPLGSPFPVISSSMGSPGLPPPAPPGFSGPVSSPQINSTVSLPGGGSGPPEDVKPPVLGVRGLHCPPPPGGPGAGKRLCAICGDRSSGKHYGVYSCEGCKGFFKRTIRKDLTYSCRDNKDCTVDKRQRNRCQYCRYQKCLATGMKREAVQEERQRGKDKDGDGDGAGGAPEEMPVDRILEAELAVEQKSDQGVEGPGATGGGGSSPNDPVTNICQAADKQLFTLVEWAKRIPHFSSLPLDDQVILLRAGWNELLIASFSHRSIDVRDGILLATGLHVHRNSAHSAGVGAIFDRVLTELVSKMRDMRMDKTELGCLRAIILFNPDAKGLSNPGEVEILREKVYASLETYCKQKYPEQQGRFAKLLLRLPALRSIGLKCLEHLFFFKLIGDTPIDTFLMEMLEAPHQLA
Excerpt: The results obtained in this assay are expressed in EC50 numbers, as they are also in the chimeric receptor transactivation assay. The results of the ligand binding assay are expressed in Ki numbers.
Particularly, the transactivation data pertaining to activation of the RAR receptors were obtained in the chimeric assay, and the transactivation data pertaining to the activation of RXR receptors were obtained in the holoreceptor assay.
as §2

RARγ = biological target: T4, RARγ (Homo sapiens, UniProt P13631); test: ligand binding assay, RARγ; conditions: read-out: RAR Bind. Ki γ
T4 sequence (P13631 1-454): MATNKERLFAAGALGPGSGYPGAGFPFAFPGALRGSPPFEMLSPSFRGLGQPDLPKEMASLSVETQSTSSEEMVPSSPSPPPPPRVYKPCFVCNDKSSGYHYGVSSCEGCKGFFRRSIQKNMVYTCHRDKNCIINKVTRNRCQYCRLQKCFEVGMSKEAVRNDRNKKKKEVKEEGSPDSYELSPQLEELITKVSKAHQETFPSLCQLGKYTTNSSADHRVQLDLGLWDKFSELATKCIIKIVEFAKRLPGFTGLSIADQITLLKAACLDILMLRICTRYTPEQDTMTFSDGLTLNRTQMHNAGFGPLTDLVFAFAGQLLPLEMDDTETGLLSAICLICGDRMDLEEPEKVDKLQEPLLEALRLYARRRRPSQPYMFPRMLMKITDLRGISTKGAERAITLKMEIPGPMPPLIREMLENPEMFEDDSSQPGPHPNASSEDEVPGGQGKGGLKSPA
Excerpt: as §1, §2

| SMILES | Ki (RXRα) [nM] | EC50 (RARβ) [nM] | RAR β efficacy in percentage as compared to the standard compound (RARβ) [%] | RXR β efficacy in percentage as compared to the standard compound (RXRβ) [%] | EC50 (RXRβ) [nM] | efficacy in activating RXRβ compared with RXRα and RXRγ subtypes (in words) (RXRβ) | Ki (RARγ) [nM] |
| --- | --- | --- | --- | --- | --- | --- | --- |
| CCCOc1cc2c(cc1\C(C)=C(F)/C=C/C(C)=C/C(=O)O)C(C)(C)CCC2(C)C [Compound 4] | 6 | 185 | 16 | 24 | 62 | significantly more effective in activating the RXRβ subtype | 720 |
| CCOc1cc2c(cc1\C(CC)=C(F)/C=C/C(C)=C/C(=O)O)C(C)(C)CCC2(C)C [Compound 2, (2E,4E,6E)-7-(3-Ethoxy-5,5,8,8-tetramethyl-5,6,7,8-tetrahydronaphthalen-2-yl)-6-fluoro-3-methylnona-2,4,6-trienoic acid] | 22 | 250 | 11 | 46 | 36 | significantly more effective in activating the RXRβ subtype | 1510 |
